According to PubChem BioAssay (NCI):
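In this assay, cells in 96-well plates receive the compound at five concentrations for 48 hours. Endpoints are linearly interpolated between the surrounding concentrations. At the GI50, growth is halved. At the TGI there is no net growth.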

Legend:
Experiment in all cases: NCI-60 cell line screen, 48 h
[1] = system: 786-0 renal
[2] = system: A498 renal
[3] = system: A549 NSCLC
[4] = system: ACHN renal
[5] = system: BT-549 breast
[6] = system: CAKI-1 renal
[7] = system: CCRF-CEM leukemia
[8] = system: COLO 205 colon
[9] = system: DU-145 prostate
[10] = system: EKVX NSCLC
[11] = system: HCC-2998 colon
[12] = system: HCT-116 colon
[13] = system: HCT-15 colon
[14] = system: HL-60(TB) leukemia
[15] = system: HOP-62 NSCLC
[16] = system: HOP-92 NSCLC
[17] = system: HS 578T breast
[18] = system: HT29 colon
[19] = system: IGROV1 ovarian
[20] = system: K-562 leukemia
[21] = system: KM12 colon
[22] = system: LOX IMVI melanoma
[23] = system: M14 melanoma
[24] = system: MALME-3M melanoma
[25] = system: MCF7 breast
[26] = system: MDA-MB-231 breast
[27] = system: MDA-MB-435
[28] = system: MOLT-4 leukemia
[29] = system: NCI-H226 lung
[30] = system: NCI-H460 lung
[31] = system: NCI-H522 lung
[32] = system: NCI/ADR-RES ovarian
[33] = system: OVCAR-3 ovarian
[34] = system: OVCAR-4 ovarian
[35] = system: OVCAR-5 ovarian
[36] = system: OVCAR-8 ovarian
[37] = system: PC-3 prostate
[38] = system: RPMI-8226 leukemia
[39] = system: RXF 393 renal
[40] = system: SF-268 CNS
[41] = system: SF-295 CNS
[42] = system: SF-539 CNS
[43] = system: SK-MEL-2 melanoma
[44] = system: SK-MEL-28 melanoma
[45] = system: SK-MEL-5 melanoma
[46] = system: SK-OV-3 ovarian
[47] = system: SN12C renal
[48] = system: SNB-19 CNS
[49] = system: SNB-75 CNS
[50] = system: SR leukemia
[51] = system: SW-620 colon
[52] = system: T-47D breast
[53] = system: TK-10 renal
[54] = system: U251 CNS
[55] = system: UACC-257 melanoma
[56] = system: UACC-62 melanoma
[57] = system: UO-31 renal

SMILES: CCNC(=O)N1CCc2cc(OC)c(OCCc3ccc(OC)nc3)cc2C1c1ccc(C)cc1C (centres undefined)
- GI50 [1]: 687 nM
- TGI [1]: > 100 µM
- GI50 [2]: 1390 nM
- TGI [2]: 14.3 µM
- GI50 [3]: 984 nM
- TGI [3]: > 100 µM
- GI50 [4]: 662 nM
- TGI [4]: 91.1 µM
- GI50 [5]: 1550 nM
- TGI [5]: 7.45 µM
- GI50 [6]: 611 nM
- TGI [6]: > 100 µM
- GI50 [7]: 519 nM
- TGI [7]: 55 µM
- GI50 [8]: 792 nM
- TGI [8]: 4.17 µM
- GI50 [9]: 858 nM
- TGI [9]: 24 µM
- GI50 [10]: 4.03 µM
- TGI [10]: > 100 µM
- GI50 [11]: 1560 nM
- TGI [11]: 17.8 µM
- GI50 [12]: 299 nM
- TGI [12]: 20.7 µM
- GI50 [13]: 156 nM
- TGI [13]: > 60.2 µM
- GI50 [14]: 651 nM
- TGI [14]: 3.82 µM
- GI50 [15]: 1350 nM
- TGI [15]: > 37.5 µM
- GI50 [16]: 4.52 µM
- TGI [16]: 27.4 µM
- GI50 [17]: 1530 nM
- TGI [17]: 10.6 µM
- GI50 [18]: 573 nM
- TGI [18]: 10.5 µM
- GI50 [19]: 743 nM
- TGI [19]: > 100 µM
- GI50 [20]: 259 nM
- TGI [20]: > 100 µM
- GI50 [21]: 634 nM
- TGI [21]: > 40.4 µM
- GI50 [22]: 308 nM
- TGI [22]: 5.41 µM
- GI50 [23]: 722 nM
- TGI [23]: 19.3 µM
- GI50 [24]: 1350 nM
- TGI [24]: 50.2 µM
- GI50 [25]: 443 nM
- TGI [25]: > 100 µM
- GI50 [26]: 1140 nM
- TGI [26]: 30.2 µM
- GI50 [27]: 370 nM
- TGI [27]: 5.89 µM
- GI50 [28]: 416 nM
- TGI [28]: 35.5 µM
- GI50 [29]: 1730 nM
- TGI [29]: 11.4 µM
- GI50 [30]: 241 nM
- TGI [30]: 6.36 µM
- GI50 [31]: 523 nM
- TGI [31]: 2720 nM
- GI50 [32]: 659 nM
- TGI [32]: 38.8 µM
- GI50 [33]: 1340 nM
- TGI [33]: 24.3 µM
- GI50 [34]: 3.3 µM
- TGI [34]: > 100 µM
- GI50 [35]: 2020 nM
- TGI [35]: > 100 µM
- GI50 [36]: 675 nM
- TGI [36]: > 43.1 µM
- GI50 [37]: 719 nM
- TGI [37]: > 71.8 µM
- GI50 [38]: 531 nM
- TGI [38]: 3.58 µM
- GI50 [39]: 1070 nM
- TGI [39]: 15 µM
- GI50 [40]: 927 nM
- TGI [40]: 50.1 µM
- GI50 [41]: 574 nM
- TGI [41]: 8.8 µM
- GI50 [42]: 501 nM
- TGI [42]: 5.23 µM
- GI50 [43]: 3.33 µM
- TGI [43]: 16.4 µM
- GI50 [44]: 873 nM
- TGI [44]: 32.1 µM
- GI50 [45]: 839 nM
- TGI [45]: 2710 nM
- GI50 [46]: 2670 nM
- TGI [46]: > 100 µM
- GI50 [47]: 1100 nM
- TGI [47]: 15.4 µM
- GI50 [48]: 837 nM
- TGI [48]: > 100 µM
- GI50 [49]: 667 nM
- TGI [49]: > 23.5 µM
- GI50 [50]: 207 nM
- TGI [50]: 2960 nM
- GI50 [51]: 466 nM
- TGI [51]: > 100 µM
- GI50 [52]: 2680 nM
- TGI [52]: 64.5 µM
- GI50 [53]: 5 µM
- TGI [53]: > 100 µM
- GI50 [54]: 636 nM
- TGI [54]: 17.5 µM
- GI50 [55]: 2290 nM
- TGI [55]: 50.5 µM
- GI50 [56]: 430 nM
- TGI [56]: 12.2 µM
- GI50 [57]: 929 nM
- TGI [57]: > 100 µM
